US20220031687A1, “SYNERGIC PHARMACEUTICAL COMBINATION OF A LEUKOTRIENE-RECEPTOR ANTAGONIST AND AN INVERSE AGONIST OF HISTAMINE HI” (priority 2018, published 2022)

Legend:
rat tracheal rings [1] = test: LTD4-induced contraction of isolated rat tracheal rings; format: cell-based
Description: . The thoracic cavity was exposed, the neck was dissected, and the trachea was removed 1 mm above the tracheal bifurcation and 1 mm below the thyroid cartilage. The sample was submerged in cold Krebs-Henseleit solution bubbled with 95% 02 and 5% CO2, and 3 mm-thick rings were cut. Each ring was placed in an isolated organ chamber, with its bottom anchored by means of a stainless-steel hook and another hook connected to a tension transducer. The chamber was then filled with Krebs-Henseleit solution at 36° C. bubbled with 95% 02 and 5% CO2, pH 7.4±0.5. Two washes were performed, and a 1.5 g load was applied to each ring and were left to rest for 60 minutes. […]
(§1) The antagonist's effects to their own agonists were analyzed using dose-response curves of the agonists in tracheal rings incubated with different antagonists' concentrations. […]
(§2) The half maximal effective concentration (EC50) of each dose-response curve of the analyzed agonists was obtained using the sigmoid model, wherein: y=a+(b−a)/(1+10^(logx0-x)*x p)). […]
(§3) Data are presented as mean±standard deviation of 2 rings obtained from each of the tracheas of 5 rats. Data were analyzed with the one-way ANOVA test with a Dunett's post-test. EC50's were determined by means of the sigmoid model and the 40 percent of effects was obtained using a linear regression. The t and T values were determined based on a t-values table.

rat tracheal rings [2] = test: Histamine-induced contraction of isolated rat tracheal rings; format: cell-based
Description: Male Wistar rats 300-350 g were sacrificed with a phenobarbital sodium overdose given by intraperitoneal route. The thoracic cavity was exposed, the neck was dissected, and the trachea was removed 1 mm above the tracheal bifurcation and 1 mm below the thyroid cartilage. The sample was submerged in cold Krebs-Henseleit solution bubbled with 95% 02 and 5% CO2, and 3 mm-thick rings were cut. Each ring was placed in an isolated organ chamber, with its bottom anchored by means of a stainless-steel hook and another hook connected to a tension transducer. The chamber was then filled with Krebs-Henseleit solution at 36° C. bubbled with 95% 02 and 5% CO2, pH 7.4±0.5. […]
as §1, §2, §3

[3] = cited from earlier work; for bioavailability / time to maximum plasma concentration: oral administration
[4] = cited from earlier work

Compound: CCCCC/C=C\C\C=C/C=C/C=C/[C@@H](SC[C@H](N)C(=O)NCC(=O)O)[C@@H](O)CCCC(=O)O [LTD4, leukotriene D4]
- EC50 (rat tracheal rings [1]; cumulative administration, normalised to acetylcholine 0.1 mM = 100%, read-out: EC50 of concentration-dependent contraction of rat tracheal rings): 42.6 nM

Compound: NCCc1c[nH]cn1 [histamine, 2-(4-imidazol) ethylamine]
- EC50 (rat tracheal rings [2]; Rattus norvegicus, cumulative administration, normalised to acetylcholine 0.1 mM = 100%, read-out: EC50 of concentration-dependent contraction of rat tracheal rings): 3540 nM

Compound: CN1CCC(=C2c3ccccc3CC(=O)c3sccc32)CC1 [ketotifen, 4,9-Dihydro-4-(1-methyl-4-piperidylidene)-10H-benzo(4,5)cyclohepta[1,2-b]thiophen-10-one]
- excreted in urine as metabolites ([3]; first 48 hours): 60 to 70%
- excreted unaltered in urine ([3]; first 48 hours): Approximately 1%
- first pass effect of the liver metabolism ([3]; glucuronidation and demethylation): approximately 50%
- long half-life (biphasic elimination) ([3]; in vivo): 21 h
- short half-life (biphasic elimination) ([3]; in vivo): 3 to 5 h
- therapeutic plasma concentrations ([3]; in vivo): 1 to 4 µg/mL
- bioavailability [3]: approximately 50%
- time to maximum plasma concentration [3]: 2 to 4 h
- fecal excretion ([3]; up to): 30 to 40%
- plasma protein binding [4]: 75%
- blocking of the contraction induced by the highest histamine concentration (rat tracheal rings [2]; 100 μM ketotifen): 65%

Compound: CC(C)(O)c1ccccc1CC[C@@H](SCC1(CC(=O)O)CC1)c1cccc(/C=C/c2ccc3ccc(Cl)cc3n2)c1 [montelukast, 1-[[[(1R)-1-[3-[(1E)-2-(7-chloro-2-quinolinyl)ethenyl]phenyl]-3-[2-(1-hydroxy-1-methylethyl)phenyl]propyl]thio]methyl] cyclopropaneacetic acid]
- blocking of the contraction induced by the highest LTD4 concentration (rat tracheal rings [1]; 30 μM montelukast): 75%
- biological half-life ([3]; in vivo): 2.7-5.5 hours
- bioavailability [3]: 64%
- time to maximum plasma concentration [3]: 2 to 4 h
- plasma protein binding [4]: 99%
